We go through 1 compound from patent US6838477B2, “Lactacystin analogs” (President and Fellows of Harvard College, priority 1995, dated 2005).

The target in assay [1] is T1, 20S proteasome chymotrypsin-like activity (Bos taurus, UniProt Q32KL2).
T1 construct: from tissue; host or cells: bovine brain
The assay is described as follows: Kinetics of inhibition of 20S proteasome chymotrypsin-like activity (Suc-LLVY-AMC). The format is biochemical, bovine. The protocol:
(§1) Experiments involving the proteasome were performed as follows: 20S proteasome (˜5 ng/μl) in 10 mM Tris-HCl, pH 7.5, 1 mM EDTA was incubated at 25° C. in the presence of lactacystin or lactacystin analogs in DMSO or MeOH [not exceeding 5% (v/v)]. Aliquots for fluorescence assay were removed at various times following addition of compound and diluted in 10 mM Tris-HCl, pH 7.5, 1 mM EDTA containing fluorogenic peptide substrates (100 μM final). Suc-LLVY-AMC, Cbz-GGR-βNA and […] (AMC=7-amido-4-methylcoumarin; βNA=β-naphthylamide) were used to assay for the chymotrypsin-like, trypsin-like and peptidylglutamyl-peptide hydrolyzing activities, respectively.
(§2) Fluorescent emission at 460 nm with excitation at 380 nm was measured for AMC-containing substrates, and emission at 410 nm with excitation at 335 nm was measured for βNA-containing substrates. The fluorescence assays were conducted at 25° C., each experiment was performed at least three times, and values represent mean±standard deviation.
(§3) The reversibility of the inhibitory effects was assessed by measuring residual peptidase activity after removal of excess inhibitor by extensive serial dilution/ultrafiltration.

Assay [2] has as its target T2, 20S proteasome trypsin-like activity (Bos taurus, UniProt Q2TBP0).
T2 construct: from tissue; host or cells: bovine brain
The assay is described as follows: Kinetics of inhibition of 20S proteasome trypsin-like activity (Cbz-GGR-βNA). The format is biochemical, bovine. How it is done: as §1, §2, §3

Assay [3] addresses 20S proteasome peptidylglutamyl-peptide hydrolyzing activity (Bos taurus, UniProt Q3MHN0). How it is done:
as §1, §2, §3

In another assay the target is α-Chymotrypsin (Bos taurus, UniProt P00766, DEL14-15/DEL147-148). The assay is described as follows: Selectivity of protease inhibition: α-chymotrypsin. The format is biochemical. The conditions noted are these: concentration not given.
In another assay the target is T3, Trypsin (Bos taurus, UniProt P00760).
T3 construct: gene PRSS1
T3 sequence (P00760 24-246): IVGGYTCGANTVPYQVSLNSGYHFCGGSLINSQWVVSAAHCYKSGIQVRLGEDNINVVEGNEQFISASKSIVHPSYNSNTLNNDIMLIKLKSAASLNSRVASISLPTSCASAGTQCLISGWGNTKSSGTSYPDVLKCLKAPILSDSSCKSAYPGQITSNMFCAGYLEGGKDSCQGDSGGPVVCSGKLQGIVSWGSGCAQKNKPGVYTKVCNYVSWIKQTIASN
The experiment in a line: Selectivity of protease inhibition: trypsin. The format is biochemical. The conditions noted are these: concentration not given.

The target of the next assay is T4, Calpain II (Homo sapiens, UniProt P17655).
T4 sequence (P17655 1-700): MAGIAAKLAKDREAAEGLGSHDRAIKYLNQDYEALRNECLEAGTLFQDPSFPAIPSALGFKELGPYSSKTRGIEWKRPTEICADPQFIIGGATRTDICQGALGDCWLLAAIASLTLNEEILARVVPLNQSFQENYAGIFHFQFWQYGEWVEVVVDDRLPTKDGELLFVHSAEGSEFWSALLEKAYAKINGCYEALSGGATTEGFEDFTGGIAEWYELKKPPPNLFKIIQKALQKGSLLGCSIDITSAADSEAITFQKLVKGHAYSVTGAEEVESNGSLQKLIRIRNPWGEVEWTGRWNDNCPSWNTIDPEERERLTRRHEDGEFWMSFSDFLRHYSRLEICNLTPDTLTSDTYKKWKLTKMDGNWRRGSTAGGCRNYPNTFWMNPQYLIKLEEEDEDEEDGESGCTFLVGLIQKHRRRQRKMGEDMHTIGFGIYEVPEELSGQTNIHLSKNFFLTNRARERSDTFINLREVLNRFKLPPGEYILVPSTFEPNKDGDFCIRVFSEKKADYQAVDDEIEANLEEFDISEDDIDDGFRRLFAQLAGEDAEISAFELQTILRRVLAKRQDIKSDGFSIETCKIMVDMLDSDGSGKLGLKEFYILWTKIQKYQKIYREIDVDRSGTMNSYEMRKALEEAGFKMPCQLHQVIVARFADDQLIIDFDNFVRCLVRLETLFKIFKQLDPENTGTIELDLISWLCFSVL
T4 sequence (P04632 1-268 partner): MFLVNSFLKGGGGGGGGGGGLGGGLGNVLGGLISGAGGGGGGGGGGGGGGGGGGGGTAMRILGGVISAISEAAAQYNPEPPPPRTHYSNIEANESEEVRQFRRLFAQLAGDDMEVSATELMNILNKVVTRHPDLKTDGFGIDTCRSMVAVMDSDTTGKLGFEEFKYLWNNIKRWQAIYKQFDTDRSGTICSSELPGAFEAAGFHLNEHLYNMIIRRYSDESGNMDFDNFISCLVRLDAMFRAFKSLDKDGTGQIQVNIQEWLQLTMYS
The experiment in a line: Selectivity of protease inhibition: calpain II. The format is biochemical. The conditions noted are these: concentration not given.

A further assay deals with T5, Papain (Carica papaya, UniProt P00784).
T5 sequence (P00784 134-345): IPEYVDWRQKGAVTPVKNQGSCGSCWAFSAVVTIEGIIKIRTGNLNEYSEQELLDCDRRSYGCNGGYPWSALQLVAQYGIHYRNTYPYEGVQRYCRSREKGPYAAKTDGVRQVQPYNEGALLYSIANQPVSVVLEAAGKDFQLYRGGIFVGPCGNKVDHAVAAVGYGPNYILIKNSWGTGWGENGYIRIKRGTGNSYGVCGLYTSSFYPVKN
The assay is described as follows: Selectivity of protease inhibition: papain. The format is biochemical. The conditions noted are these: concentration not given.

The target of a further assay is Cathepsin B (Homo sapiens, UniProt P07858). The experiment in a line: Selectivity of protease inhibition: cathepsin B. The format is biochemical. The conditions noted are these: concentration not given.
The test system of the next assay is IκB-α. The experiment in a line: TNF-α dependent degradation of IκB-α in Hela cells (immunoblot). The conditions noted are these: 5 μM, 1 h pretreatment, 1,000 U/ml TNF-α. The format is cell-based, human. How it is done:
Hela cells were plated onto 6-well plates in DME plus 10% fetal calf serum (3 mls/well). Cells were then pretreated with 0.125% DMSO 40 μM […] (carbobenzoxyl-leucinyl-leucinyl-leucinal-H)(40 μM, lanes 103), or 5 μM β-lactone for one hour, followed by treatment with 1,000 U/ml TNF-α or phosphate buffered saline (PBS). Cells were harvested after 0 min, 20 min, or 40 min of further incubation at 37° C. Cells were then lysed in buffer containing NP-40 and protease inhibitors, and the proteins separated on a 10% SDS-polyacrylamide gel. The proteins were then transferred to nitrocellulose and probed with antibodies against the C-terminal 20 amino acids of human IκB-α.
In general terms: Immunoblotting shows a protein as a band on a membrane.

Setting [4] is: residual activity after removal of excess inhibitor by serial dilution/ultrafiltration.

As to `CC(C)[C@H](O)[C@@]12NC(=O)[C@H](C)[C@@H]1OC2=O` [β-Lactone, clasto-lactacystin β-lactone], the “κassoc = κobs/[I], Chymotrypsin-like activity (Suc-LLVY-AMC)” value in assay [1] (compound 1 μM, 25° C.) was found to be 3059 ± 478 s^−1M^−1. Also, the “chymotrypsin-like activity inhibited faster than by lactacystin” value in assay [1] (relative to lactacystin) was 15-20 times. Also, the “reversibility of inhibition of chymotrypsin-like activity” value in assay [1] (setting [4]) is given as “irreversibly”. The “κassoc = κobs/[I], Trypsin-like activity (Cbz-GGR-βNA)” value in assay [2] (compound 5 μM, 25° C.) worked out at 208 ± 21 s^−1M^−1. In addition, the “trypsin-like activity inhibited faster than by lactacystin” value in assay [2] (relative to lactacystin) was 15-20 times. Besides, the “reversibility of inhibition of trypsin-like activity” value in [2] (setting [4]) was “irreversibly”. Moreover, the “κassoc = κobs/[I], Peptidylglutamyl-peptide hydrolyzing activity (Cbz-LLE-βNA)” value in [3] (compound 50 μM, 25° C.) stood at 59 ± 17 s^−1M^−1. Besides, the “PGPH activity inhibited faster than by lactacystin” value in assay [3] (relative to lactacystin) is recorded as 15-20 times. Further, in [3] (setting [4]), the “reversibility of inhibition of PGPH activity” value is “reversibly”. The “inhibition of α-chymotrypsin activity” value at α-Chymotrypsin is listed as “do not inhibit”. Moreover, at Trypsin, the “inhibition of trypsin activity” value is on record as “do not inhibit”. Moreover, at Calpain II, the “inhibition of calpain II activity” value is recorded as “do not inhibit”. In addition, the “inhibition of papain activity” value against Papain is recorded as “do not inhibit”. Further, the “inhibition of cathepsin activity” value against Cathepsin B was “do not inhibit”. In the assay on IκB-α, the “degradation of IκB after TNF induction” value is on record as “blocks degradation” and the “phosphorylated form of IκB” value is “stabilizes the phosphorylated form”.
